Test results reported in the supplement of paper PMC11208160.

Assay: recombinant UMI read abundance after kanamycin selection (control-corrected) (log10(CPM+1)); higher = more efficient recombination; extreme values may be limits of the assay; sequences stand for … in AGTGCAGAGAAAATCGGCCAGTTTTCTCTGCCTGCAGTCCGCATGCCGTGGGACCCCTTGGGTTCTAACCTGTTGCCTAGATTTATGCAGCGGACTGCCTTTCTCCCAAAGTGATAAACCGG…AGGTTGGTTTCACT; site = the 11-nt donor
Summary of the method: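 In Escherichia coli, a pool of donor and donor-binding-loop pairs, each with a 12-nt UMI, was tested for the IS621 bridge recombinase. Plating was on IPTG (0.07 mM) plus kanamycin, or without selection, in two replicates. Recombinant UMIs were amplified by PCR across the donor–target junction and sequenced, and counts were reported as log10(CPM+1) after averaging and control-derived scaling.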
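Note: IS621 bridge recombinase in Escherichia coli cells against a fixed T5 target plasmid.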

“AGGAAGACATGGACCGGTTTTCCCGGTAATCCGTATTTGCA (site GGGAAGACTAG)” and “AGGAAGACATGGACCGGTTTTCCCGGTAATCCGTATTTGCA (site GGGAAGACTTC)” are the same in “recombinant UMI read abundance (log10)” value: 0 for the first, 0 for the second.

Going from “AGGAAGACATGGACCGGTTTTCCCGGTAATCCGTATTTGCA (site GGGAAGACTTG)” to “AGGAAGACATGGACCGGTTTTCCCGGTAATCCGTATTTGCA (site GGGAAGGCTTG)”, the “recombinant UMI read abundance (log10)” value falls from 0.614 to 0.

“AGGAAGACATGGACCGGTTTTCCCGGTAATCCGTATTTGCA (site GGGAATACTTG)” and “AGGAAGACATGGACCGGTTTTCCCGGTAATCCGTATTTGCA (site GGGACGACTTG)” are within 0.2 log units of each other in “recombinant UMI read abundance (log10)” value: 0 for the first, 0.00563 for the second.

Compared with “AGGAAGACATGGACCGGTTTTCCCGGTAATCCGTATTTGCA (site GGGCAGACTTG)”, “AGGAAGACATGGACCGGTTTTCCCGGTAATCCGTATTTGCA (site GTGAAGACTTG)” is lower in “recombinant UMI read abundance (log10)” value: 0.837 for the first, 0 for the second.

Going from “AGGAAGACATGGACCGGTTTTCCCGGTAATCCGTATTTGCA (site TCGAAGACTTG)” to “AGGAAGACATGGACCGGTTTTCCCGGTAATCCGTATTTGCA (site TGAAAGACTTG)”, the “recombinant UMI read abundance (log10)” value falls from 1.81 to 1.06.

First: AGGAAGACATGGACCGGTTTTCCCGGTAATCCGTATTTGCA (site TGGAAAACTTG)
Second: AGGAAGACATGGACCGGTTTTCCCGGTAATCCGTATTTGCA (site TGGAAGACTCG)
The “recombinant UMI read abundance (log10)” value of the first is higher: 0.756 for the first, 0.00521 for the second.

Going from “AGGAAGACATGGACCGGTTTTCCCGGTAATCCGTATTTGCA (site TGGAAGACTTA)” to “AGGAAGACATGGACCGGTTTTCCCGGTAATCCGTATTTGCA (site TGGAAGACTTG)”, the “recombinant UMI read abundance (log10)” value rises from 0.696 to 1.16.

“AGGAAGACATGGACCGGTTTTCCCGGTAATCCGTATTTGCA (site TGGAAGTCTTG)” and “AGGAAGACATGGACCGGTTTTCCCGGTAATCCGTATTTGCA (site TGGATGACTTG)” are within 0.2 log units of each other in “recombinant UMI read abundance (log10)” value: 0 for the first, 0.00459 for the second.

Going from “AGGAAGACATGGACCGGTTTTCCCGGTAATCCGTATTTGCA (site TGGGAGACTTG)” to “AGGAAGACATGGACCGGTTTTCCCGGTAATCCGTATTTGTA (site AGGAAGACTTA)”, the “recombinant UMI read abundance (log10)” value rises from 0 to 2.74.

First: AGGAAGACATGGACCGGTTTTCCCGGTAATCCGTATTTGTA (site AGGAAGACTTC)
Second: AGGAAGACATGGACCGGTTTTCCCGGTAATCCGTATTTGTA (site AGGAAGACTTG)
The “recombinant UMI read abundance (log10)” value of the first is lower: 0.521 for the first, 2.11 for the second.

“AGGAAGACATGGACCGGTTTTCCCGGTAATCCGTATTTGTA (site AGGAAGACTTT)” and “AGGAAGGCATGGACCGGTTTTCCCGGTAATCCGTATTTGCA (site AGGAAGACTTG)” are within 0.2 log units of each other in “recombinant UMI read abundance (log10)” value: 1.8 for the first, 1.98 for the second.

First: AGGAAGGCATGGACCGGTTTTCCCGGTAATCCGTATTTGCA (site AGGAAGCCTTG)
Second: AGGAAGGCATGGACCGGTTTTCCCGGTAATCCGTATTTGCA (site AGGAAGGCTTG)
The “recombinant UMI read abundance (log10)” value of the first is lower: 0 for the first, 2.41 for the second.

Going from “AGGAAGGCATGGACCGGTTTTCCCGGTAATCCGTATTTGCA (site AGGAAGTCTTG)” to “AGGAATGCATGGACCGGTTTTCCCGGTAATCCGTATTTGCA (site AGGAAGACTTG)”, the “recombinant UMI read abundance (log10)” value falls from 1.82 to 0.

Going from “AGGAATGCATGGACCGGTTTTCCCGGTAATCCGTATTTGCA (site AGGAATGCTTG)” to “AGGACGGCATGGACCGGTTTTCCCGGTAATCCGTATTTGCA (site AGGAAGACTTG)”, the “recombinant UMI read abundance (log10)” value falls from 1.74 to 0.

Compared with “AGGACGGCATGGACCGGTTTTCCCGGTAATCCGTATTTGCA (site AGGACGGCTTG)”, “AGGACTACATGGACCGGTTTTCCCGGTAATCCGTATTTGAG (site AGGACTACTAT)” is lower in “recombinant UMI read abundance (log10)” value: 2.23 for the first, 0.00837 for the second.

Going from “AGGACTACATGGACCGGTTTTCCCGGTAATCCGTATTTGAG (site AGGACTACTCT)” to “AGGACTACATGGACCGGTTTTCCCGGTAATCCGTATTTGAG (site AGGACTACTGT)”, the “recombinant UMI read abundance (log10)” value falls from 1.54 to 0.

First: AGGACTACATGGACCGGTTTTCCCGGTAATCCGTATTTGAG (site AGGACTACTTT)
Second: AGGACTACATGGACCGGTTTTCCCGGTAATCCGTATTTGAT (site AGGACTACTAT)
The “recombinant UMI read abundance (log10)” value of the first is lower: 0.493 for the first, 1.77 for the second.

“AGGACTACATGGACCGGTTTTCCCGGTAATCCGTATTTGAT (site AGGACTACTCT)” and “AGGACTACATGGACCGGTTTTCCCGGTAATCCGTATTTGAT (site AGGACTACTGT)” are within 0.2 log units of each other in “recombinant UMI read abundance (log10)” value: 0.00954 for the first, 0 for the second.

Going from “AGGACTACATGGACCGGTTTTCCCGGTAATCCGTATTTGAT (site AGGACTACTTT)” to “AGGACTACATGGACCGGTTTTCCCGGTAATCCGTATTTGCT (site AGGACTACTAG)”, the “recombinant UMI read abundance (log10)” value rises from 0.00536 to 2.5.

Compared with “AGGACTACATGGACCGGTTTTCCCGGTAATCCGTATTTGTC (site AGGACTACTGA)”, “AGGACTACATGGACCGGTTTTCCCGGTAATCCGTATTTGTC (site AGGACTACTGC)” is lower in “recombinant UMI read abundance (log10)” value: 2 for the first, 0 for the second.

Going from “AGGACTACATGGACCGGTTTTCCCGGTAATCCGTATTTGTC (site AGGACTACTGG)” to “AGGACTACATGGACCGGTTTTCCCGGTAATCCGTATTTGTC (site AGGACTACTGT)”, the “recombinant UMI read abundance (log10)” value rises from 0 to 1.37.

Going from “AGGAGCACATGGACCGGTTTTCCCGGTAATCCGTATTTGCA (site AGGAAGACTTG)” to “AGGAGCACATGGACCGGTTTTCCCGGTAATCCGTATTTGCA (site AGGAGCACTTG)”, the “recombinant UMI read abundance (log10)” value rises from 0 to 2.37.

Compared with “AGGAGGCCATGGACCGGTTTTCCCGGTAATCCGTATTTGAG (site AGGAGGCCTCT)”, “AGGATCTCATGGACCGGTTTTCCCGGTAATCCGTATTTGTG (site AGGATCTCTCA)” is higher in “recombinant UMI read abundance (log10)” value: 0.233 for the first, 2.92 for the second.

First: AGGATTTCATGGACCGGTTTTCCCGGTAATCCGTATTTGCG (site AGGATTTCTCG)
Second: AGGCAAACATGGACCGGTTTTCCCGGTAATCCGTATTTGTA (site AGGCAAACTTA)
The “recombinant UMI read abundance (log10)” value of the first is lower: 1.32 for the first, 1.9 for the second.

Going from “AGGCAGACATGGACCGGTTTTCCCGGTAATCCGTATTTGCA (site AGGAAGACTTG)” to “AGGCAGACATGGACCGGTTTTCCCGGTAATCCGTATTTGCA (site AGGCAGACTTG)”, the “recombinant UMI read abundance (log10)” value rises from 0.346 to 2.49.

Compared with “AGGCAGACATGGACCGGTTTTCCCGGTAATCCGTATTTGCA (site AGGGAGACTTG)”, “AGGCAGACATGGACCGGTTTTCCCGGTAATCCGTATTTGCA (site AGGTAGACTTG)” is higher in “recombinant UMI read abundance (log10)” value: 0.0572 for the first, 0.965 for the second.

First: AGGCAGACATGGACCGGTTTTCCCGGTAATCCGTATTTGCT (site AGGAAGACTTG)
Second: AGGCAGACATGGACCGGTTTTCCCGGTAATCCGTATTTGCT (site AGGCAGACTAG)
The “recombinant UMI read abundance (log10)” value of the first is lower: 0 for the first, 2.13 for the second.

Going from “AGGCCGGCATGGACCGGTTTTCCCGGTAATCCGTATTTGGC (site AGGCCGGCTGC)” to “AGGCCGGCATGGACCGGTTTTCCCGGTAATCCGTATTTGGC (site CGGCCGGCTGC)”, the “recombinant UMI read abundance (log10)” value falls from 1.07 to 0.

For “AGGCCGGCATGGACCGGTTTTCCCGGTAATCCGTATTTGGC (site GGGCCGGCTGC)”, the “recombinant UMI read abundance (log10)” value was 0.
